# In paper PMC12040169 (PLOS Biology, 2025):
# Experiment: in vitro
# Details: human, hela cells, % viability
row,Structure (SMILES),"viability at 28.5 h, 10 µM [%]"
1,Cc1cn(CC(=O)N2CCC3(CCN(C(=O)Cc4c[nH]c5ccccc45)C3)C2)c(=O)[nH]c1=O (stereo not shown) [CBK131445],101
2,COc1cc(C(=O)N2CCC3(CCN(C(=O)Cc4c[nH]c5ccccc45)C3)C2)cc(OC)c1OC (stereo not shown) [CBK131448],86.7
3,CN1CCN(S(=O)(=O)c2ccc(-c3cnc(N)c(-c4ccc(O)cc4)n3)cc2F)CC1 [CBK131449],93.9
4,Cc1cc(-c2cncc(-c3ccc(O)cc3)n2)ccc1S(=O)(=O)N1CCOCC1 [CBK131460],92.4
5,CCN1CC2(CCN(CC(N)=O)CC2)c2ccccc21 [CBK131485],107
6,CCN1CC2(CCN(Cc3ncc[nH]3)CC2)c2ccccc21 [CBK131486],89.1
7,CCN1CC2(CCN(CCCCC3NC(=O)NC3=O)CC2)c2ccccc21 (stereo not shown) [CBK131489],96
8,O=C(CO)N1CC2(CCN(Cc3ccc(Cl)c(Cl)c3)CC2)c2ccccc21 [CBK131495],89.5
9,O=C(CO)N1CC2(CCN(Cc3ccc4ccccc4c3)CC2)c2ccccc21 [CBK131501],88.7
10,O=C(CO)N1CC2(CCN(CCO)CC2)c2ccccc21 [CBK131507],79.7
11,O=C(CO)N1CC2(CCN(CCC(c3ccccc3)c3ccccc3)CC2)c2ccccc21 [CBK131513],106
12,OCCN1CC2(CCN(Cc3ccc4ccccc4c3)CC2)c2ccccc21 [CBK131529],92.6
13,O=C(CC1CC1)N1CCCC2(CCN(C(=O)c3cc(F)c(F)cc3F)C2)C1 (stereo not shown) [CBK131531],96.7
14,O=C(c1cc(F)c(F)cc1F)N1CCC2(CCCN(C(=O)c3cccc4[nH]ccc34)C2)C1 (stereo not shown) [CBK131544],97.3
15,O=C1NC(=O)C(CC(=O)N2CCCC3(CCN(C(=O)c4cc(F)c(F)cc4F)C3)C2)N1 (stereo not shown) [CBK131550],96.2
16,Cc1cn(CC(=O)N2CCCC3(CCN(C(=O)c4cc(F)c(F)cc4F)C3)C2)c(=O)[nH]c1=O (stereo not shown) [CBK131561],101
17,COc1cc(C(=O)N2CCCC3(CCN(C(=O)c4cc(F)c(F)cc4F)C3)C2)cc(OC)c1OC (stereo not shown) [CBK131563],106
18,O=C(Cc1c[nH]c2ccccc12)N1CCC2(CCCN(C(=O)c3cccc(C(F)(F)F)c3)C2)C1 (stereo not shown) [CBK131578],97.2
19,O=C(Cc1c[nH]c2ccccc12)N1CCC2(CCCN(C(=O)c3ccc(OC(F)(F)F)cc3)C2)C1 (stereo not shown) [CBK131579],97.8
20,O=C(Cc1c[nH]c2ccccc12)N1CCC2(CCCN(C(=O)c3cccnc3)C2)C1 (stereo not shown) [CBK131604],103
21,O=C(Cc1ccc(Cl)c(Cl)c1)N1CCCC2(CCN(C(=O)c3ccoc3)C2)C1 (stereo not shown) [CBK131619],87.4
22,O=C(/C=C/c1ccc2c(c1)OCO2)N1CCCC2(CCN(C(=O)c3ccoc3)C2)C1 (stereo not shown) [CBK131622],92.3
23,O=C(c1cc[nH]c1)N1CCCC2(CCN(C(=O)c3ccoc3)C2)C1 (stereo not shown) [CBK131629],105
24,COc1cc(C(=O)N2CCCC3(CCN(C(=O)c4ccoc4)C3)C2)cc(OC)c1OC (stereo not shown) [CBK131637],114

row,Structure (SMILES),"viability at 28.5 h, 10 µM [%]"
1,COc1ccc(C(=O)N2CCC3(CCCN(C(=O)c4ccco4)C3)C2)cc1OC (stereo not shown) [CBK131647],98.2
2,COc1ccc(C(=O)N2CCC3(CCCN(C(=O)c4cscn4)C3)C2)cc1OC (stereo not shown) [CBK131659],92
3,COc1ccc(C(=O)N2CCC3(CCCN(C(=O)CCSC)C3)C2)cc1OC (stereo not shown) [CBK131661],111
4,COc1ccc(C(=O)N2CCC3(CCCN(C(=O)c4ccc5occc5c4)C3)C2)cc1OC (stereo not shown) [CBK131665],97.6
5,COc1ccc(C(=O)N2CCC3(CCCN(C(=O)c4cc(OC)c(OC)c(OC)c4)C3)C2)cc1OC (stereo not shown) [CBK131667],86.7
6,COc1ccc(C(=O)N2CCC3(CCCN(C(=O)c4cccnc4)C3)C2)cc1OC (stereo not shown) [CBK131668],97.8
7,COc1ccc(C(=O)N2CCC3(CCCN(C(=O)c4c(F)cccc4F)C3)C2)cc1OC (stereo not shown) [CBK131669],94.1
8,O=C(O)CSc1nnc(-c2ccco2)n1-c1ccccc1 [CBK131685],85.9
9,O=C(CCCOc1ccc(Cl)cc1Cl)Nc1ccc(O)cc1C(=O)O [CBK131688],104
10,O=C(O)COc1ccc(NC(=O)CSCc2ccc(Cl)cc2Cl)cc1 [CBK131700],89.2
11,Cc1cc(Cl)ccc1OCC(=O)Nc1ccc(O)cc1C(=O)O [CBK131706],86
12,COc1ccc(Nc2nc(-c3ccccc3)c(C)s2)c(OC)c1 [CBK131709],106
13,COC(=O)c1ccccc1NC(=O)CSCc1ccc(Cl)cc1Cl [CBK131712],86.2
14,O=C(c1ccc(OC(F)(F)F)cc1)N1CCC2(CCN(C(=O)c3ccoc3)C2)C1 (stereo not shown) [CBK131735],92.8
15,COc1ccc(C(=O)N2CCC3(CCN(C(=O)CCSC)C3)C2)cc1OC (stereo not shown) [CBK131786],105
16,COc1ccc(C(=O)N2CCC3(CCN(C(=O)c4ccc5[nH]c(=O)[nH]c5c4)C3)C2)cc1OC (stereo not shown) [CBK131793],100
17,COc1cc(-c2cc(-c3ccccc3)nc(SCC(=O)O)c2C#N)cc(OC)c1OC [CBK131867],99.3
18,Cc1cc(C)c2c(N)c(C(=O)O)sc2n1 [CBK131868],87.8
19,CC(=O)c1sc2nc(C)cc(C)c2c1N [CBK131882],90.5
20,N#Cc1c(C(F)(F)F)cc(-c2ccc(Cl)cc2)nc1SCC(=O)O [CBK131885],97.5
21,CC(=O)c1cccc(-n2c(CCC(=O)O)ccc2-c2ccc(Br)cc2)c1 [CBK131888],98.2
22,NS(=O)(=O)c1ccc(Nc2nc(-c3ccccc3)c(CC(=O)O)s2)cc1 [CBK131899],91.6
23,Cc1nc(Oc2ccccc2)c2c3c(sc2n1)CCCC3 [CBK131919],101
24,Cc1nc(NCCO)c2c3c(sc2n1)CCCC3 [CBK131920],90.1

row,Structure (SMILES),"viability at 28.5 h, 10 µM [%]"
1,O=C(CSCc1ccc(Cl)cc1Cl)Nc1nccs1 [CBK131921],103
2,O=C(Cc1ccc(F)cc1F)N1CCC(Sc2ccc(-c3ccccc3)cc2)CC1 [CBK131950],105
3,O=C(c1cc(F)c(F)cc1F)N1CCC2(CCCN(Cc3ccc4ccccc4c3)C2)C1 (stereo not shown) [CBK131998],97.8
4,O=C(c1cc(F)c(F)cc1F)N1CCC2(CCCN(C/C=C/c3ccccc3)C2)C1 (stereo not shown) [CBK132001],107
5,CN(C)CCCN1CCCC2(CCN(C(=O)c3cc(F)c(F)cc3F)C2)C1 (stereo not shown) [CBK132005],96.5
6,O=C(CN1CCCC2(CCN(C(=O)c3cc(F)c(F)cc3F)C2)C1)Nc1ccc(F)c(Cl)c1 (stereo not shown) [CBK132008],96.9
7,O=C(c1cc(F)c(F)cc1F)N1CCC2(CCCN(Cc3cc(=O)[nH]c(=O)[nH]3)C2)C1 (stereo not shown) [CBK132010],101
8,O=C(c1cc(F)c(F)cc1F)N1CCC2(CCCN(CCN3CCOCC3)C2)C1 (stereo not shown) [CBK132015],82.8
9,CCC1(CC)OC(NC(C)c2ccccc2F)=NC1=O (stereo not shown) [CBK132018],87.1
10,O=C(CN1CCCC2(CCN(C(=O)Cc3c[nH]c4ccccc34)C2)C1)Nc1ccc(F)c(Cl)c1 (stereo not shown) [CBK132047],108
11,O=C(Cc1c[nH]c2ccccc12)N1CCC2(CCCN(Cc3cc(=O)[nH]c(=O)[nH]3)C2)C1 (stereo not shown) [CBK132049],102
12,Cc1ccc2cc(CN(Cc3ccc(N(C)C)cc3)C(=O)NC3CCCCC3)c(=O)[nH]c2c1C [CBK132070],97.3
13,COc1ccc2cc(CN(CCNC(=O)OC(C)(C)C)C(=O)NC3CCCCC3)c(=O)[nH]c2c1 [CBK132074],101
14,Cc1ccc2cc(CN(CCNC(=O)OC(C)(C)C)C(=O)NCc3ccccc3)c(=O)[nH]c2c1C [CBK132097],90.2
15,O=C(c1cc(F)c(F)cc1F)N1CCC2(CCN(Cc3cccc(C(F)(F)F)c3)C2)C1 (stereo not shown) [CBK132130],102
16,NC(=O)CN1CCC2(CCN(C(=O)c3cc(F)c(F)cc3F)C2)C1 (stereo not shown) [CBK132140],86.6
17,O=C(c1cc(F)c(F)cc1F)N1CCC2(CCN(Cc3cc(=O)[nH]c(=O)[nH]3)C2)C1 (stereo not shown) [CBK132141],91.4
18,COc1ccc(C(=O)N2CCC3(CCN(Cc4ccc(OC(F)(F)F)cc4)C3)C2)cc1OC (stereo not shown) [CBK132148],89
19,COc1ccc(C(=O)N2CCC3(CCN(Cc4cc(OC)c(OC)c(OC)c4)C3)C2)cc1OC (stereo not shown) [CBK132149],100
20,COc1ccc(C(=O)N2CCC3(CCN(Cc4ccc(Cl)c(Cl)c4)C3)C2)cc1OC (stereo not shown) [CBK132150],97.3
21,COc1ccc(C(=O)N2CCC3(CCN(Cc4c(F)cccc4F)C3)C2)cc1OC (stereo not shown) [CBK132152],92.8
22,COc1ccc(C(=O)N2CCC3(CCN(CCCCC4NC(=O)NC4=O)C3)C2)cc1OC (stereo not shown) [CBK132169],83
23,CCOc1cc(C(O)c2nnc(-c3ccccc3)o2)ccc1OCC(C)C (stereo not shown) [CBK132385],89.1

# Same assay, conditions: human, hela cells, % viability, bulk resorufin, single well
row,Structure (SMILES),"viability at 28.5 h, 10 µM [%]"
1,CCOC(=O)N1CCC2(CC1)OCc1cc(C#N)ccc1O2 [CBK131678],87
2,COc1ccc(OC(=O)Cc2ccccc2)cc1 [CBK131826],117
3,CCOC(=O)C1(c2ccccc2)CCN(C(=O)Cc2ccsc2)CC1 [CBK132172],93
4,CCOC(=O)C1(c2ccccc2)CCN(C(=O)CCSC)CC1 [CBK132184],113
5,CCOC(=O)C1(c2ccccc2)CCN(C(=O)c2cccc3[nH]ccc23)CC1 [CBK132193],95.7
6,CCOC(=O)C1(c2ccccc2)CCN(C(=O)CCC(=O)O)CC1 [CBK132197],94.7
7,CCOC(=O)C1(c2ccccc2)CCN(C(=O)CCC(=O)OC)CC1 [CBK132198],79.8
8,CCOC(=O)C1(c2ccccc2)CCN(C(=O)c2ccc(S(N)(=O)=O)cc2)CC1 [CBK132200],99.7
9,CCOC(=O)C1(c2ccccc2)CCN(C(=O)C(c2ccccc2)c2ccccc2)CC1 [CBK132202],100
10,CCOC(=O)C1(c2ccccc2)CCN(C(=O)c2ccc3nc[nH]c3c2)CC1 [CBK132208],103
11,CCOC(=O)C1(c2ccccc2)CCN(C(=O)CCN2CCN(C)CC2)CC1 [CBK132211],86.2
